Laboratory results: patent publication US6844353B2, “Fungicidal properties of sampangine and its analogs to agriculturally important fungal plant pathogens” (The United States of America as represented by the …, priority 2003, dated 2005)
Where two headings read alike, the source gives them in different places.

Columns and labels:
Experiment in all cases: 96-well microtiter plate assay, fungal growth inhibition
[1] = system: B. cinerea; assay type: cell-based, Botrytis cinerea; details: for inhibition at 0.3 µM / inhibition at 3 µM / inhibition at 30 µM: Botrytis cinerea, read-out: Percent inhibition−Percent Stimulation±SEM; for Percent inhibition−Percent Stimulation±SEM: B. cinerea
Description: (§1) Pathogen production. Isolates of Colletotrichum acutatum Simmonds, Colletotrichum fragariae Brooks, and Colletotrichum gloeosporioides (Penz.) Penz. & Sacc. in Penz. were obtained from B. J. Smith, USDA, ARS, Small Fruit Research Station, Poplarville, Miss. Colletotrichum fragariae (isolate CF63), C. acutatum (isolate CAGoff), and C. gloeosporioides (isolate CG162) were used for all pathogen and bioautography studies. Isolate CF63 is one of the most virulent isolates at infecting strawberry plants and inducing both crown and fruit rot (Smith and Black, 1990). CF63, CAGoff, and CG162 were used as standard test isolates because of our extensive knowledge of these isolates and their known fungicide sensitivity profiles in both bioautography and microtiter formats. The three Colletotrichum species were isolated from strawberry (Fragaria x ananassa Duchesne). Botrytis cinerea Pers.: Fr, was isolated from commercial grape (Vitis vinifera L.) and Fusarium oxysporum Schlechtend: Fr from orchid (Cynoches sp.). Phomopsis viticola (Sacc.) and P. obscurans (Ellis & Everh.) Sutton were from Mike A. Ellis, Ohio State University, Wooster, Ohio. Fungi were grown on potato-dextrose agar (PDA, Difco, Detroit, Mich.) in 9 cm petri dishes and incubated in a growth chamber at 24±2° C. and under cool-white fluorescent lights ([…]·m^−2·sec^−1 light) with 12 hour photoperiod.
(§2) Inoculum preparation. Conidia were harvested from 7-10 day-old cultures by flooding plates with 5 mL of sterile distilled water and dislodging conidia by softly brushing the colonies with an L-shaped glass rod. Conidial suspensions were filtered through sterile miracloth (Calbiochem-Novabiochem Corp., La Jolla, Calif.) to remove mycelia. Conidia concentrations were determined photometrically, from a standard curve based on the percent of transmittance (% T) at 625 nm and suspensions were then adjusted with sterile distilled water to a concentration of 1.0×10^6 conidia/mL.
(§3) Microtiter assay. A standardized 96-well microtiter plate assay developed for discovery of natural product fungicidal agents was used to evaluate naturally occurring antifungal agents from Macaranga monanara. A 96-well microtiter assay was used to determine sensitivity of B. cinerea, C. acutatum, C. fragariae, C. gloeosporioides, F. oxysporum, Phomopsis viticola, and P. obscurans to the various antifungal agents in comparison with known fungicidal standards. Vinclozolin, captan, and thiabendazole, which represent three different modes of action, were used as standards in this experiment. Each fungus was challenged in a dose-response format using test compounds where the final treatment concentrations were 0.3, 3.0 and 30.0 μM. Microtiter plates (Nunc MicroWell, untreated; Roskilde, Denmark) were covered with a plastic lid and incubated in a growth chamber as described previously for fungal growth. Growth was then evaluated by measuring absorbance of each well at 620 nm using a microplate photometer (Packard Spectra Count, Packard Instrument Co., Downers Grove, Ill.). Microtiter plates (Nunc MicroWell, untreated; Roskilde, Denmark) were covered with a plastic lid and incubated in a growth chamber at 24±1° C. and 12 hour photoperiod under 60±5 μmol light. Growth was then evaluated by measuring absorbance of each well at 620 nm using a microplate photometer (Packard Spectra Count, Packard Instrument Co., Downers Grove, Ill.).
(§4) Microbioassy Experimental Design. Chemical sensitivity each of B. cinerea, C. acutatum, C. fragariae, C. gloeosporiodes, F. oxysporum, Phomopsis viticola, and P. obscurans was evaluated using 96-well plate microbioassay format. Each chemical was evaluated in duplicate at each dose (0.3, 3.0 and 30.0 μM). […]

[2] = system: F. oxysporum; assay type: cell-based, Fusarium oxysporum; details: for inhibition at 0.3 µM / inhibition at 3 µM / inhibition at 30 µM: Fusarium oxysporum, read-out: Percent inhibition−Percent Stimulation±SEM; for Percent inhibition−Percent Stimulation±SEM: F. oxysporum
Description: as §1, §2, §3, §4

[3] = system: C. acutatum; assay type: cell-based, Colletotrichum acutatum; details: for inhibition at 0.3 µM / inhibition at 3 µM / inhibition at 30 µM: Colletotrichum acutatum, read-out: Percent inhibition−Percent Stimulation±SEM; for Percent inhibition−Percent Stimulation±SEM: C. acutatum
Description: as §1, §2, §3, §4

[4] = system: C. gloeosporioides; assay type: cell-based, Colletotrichum gloeosporioides; details: for inhibition at 0.3 µM / inhibition at 3 µM / inhibition at 30 µM: Colletotrichum gloeosporioides, read-out: Percent inhibition−Percent Stimulation±SEM; for Percent inhibition−Percent Stimulation±SEM: C. gloeosporioides
Description: as §1, §2, §3, §4

[5] = system: C. fragariae; assay type: cell-based, Colletotrichum fragariae; details: for inhibition at 0.3 µM / inhibition at 3 µM / inhibition at 30 µM: Colletotrichum fragariae, read-out: Percent inhibition−Percent Stimulation±SEM; for Percent inhibition−Percent Stimulation±SEM: C. fragariae
Description: as §1, §2, §3, §4

Cc1cc(C2CC2)nc(Nc2ccccc2)n1 [Cyprodinil]
inhibition at 0.3 µM ([1]; 48 h): 75.3 ± 21% | inhibition at 3 µM ([1]; 48 h): 29.4 ± 31.3% | inhibition at 30 µM ([1]; 48 h): 2.5 ± 31.6% | inhibition at 0.3 µM ([1]; 72 h): 61.3 ± 24.4% | inhibition at 3 µM ([1]; 72 h): 51.3 ± 30% | inhibition at 30 µM ([1]; 72 h): 27.3 ± 28.2% | inhibition at 0.3 µM ([2]; 48 h): -5.4 ± 4.8% | inhibition at 3 µM ([2]; 48 h): 16.9 ± 5.5% | inhibition at 30 µM ([2]; 48 h): 69.1 ± 4.6% | inhibition at 0.3 µM ([2]; 72 h): -5.1 ± 2.8% | inhibition at 3 µM ([2]; 72 h): 6.2 ± 2.5% | inhibition at 30 µM ([2]; 72 h): 31.3 ± 4.9% | inhibition at 0.3 µM ([3]; 48 h): 99.8 ± 0.2% | inhibition at 3 µM ([3]; 48 h): 98.6 ± 0.6% | inhibition at 30 µM ([3]; 48 h): 98.7 ± 0.5% | inhibition at 0.3 µM ([3]; 72 h): 85.1 ± 4.3% | inhibition at 3 µM ([3]; 72 h): 99.3 ± 2.2% | inhibition at 30 µM ([3]; 72 h): 97.9 ± 0.3% | inhibition at 0.3 µM ([4]; 48 h): 84.3 ± 2.3% | inhibition at 3 µM ([4]; 48 h): 91.3 ± 1.3% | inhibition at 30 µM ([4]; 48 h): 91.1 ± 7% | inhibition at 0.3 µM ([4]; 72 h): 55.7 ± 4.6% | inhibition at 3 µM ([4]; 72 h): 83.7 ± 1.8% | inhibition at 30 µM ([4]; 72 h): 93 ± 0.4% | inhibition at 0.3 µM ([5]; 48 h): 98 ± 1.6% | inhibition at 3 µM ([5]; 48 h): 91.3 ± 1.3% | inhibition at 30 µM ([5]; 48 h): 91.1 ± 7% | inhibition at 0.3 µM ([5]; 72 h): 82.6 ± 6.2% | inhibition at 3 µM ([5]; 72 h): 83.7 ± 1.8% | inhibition at 30 µM ([5]; 72 h): 93 ± 0.4%

O=C1c2ccccc2-c2nccc3c2c1nc1ccccc13 [Benzo[4,5]sampangine, benzo[4,5]sampangine]
Percent inhibition−Percent Stimulation±SEM ([1]; 0.3 μM, 48 hrs): −70.2 ± 5.8% | Percent inhibition−Percent Stimulation±SEM ([1]; 0.3 μM, 72 hrs): −55.2 ± 8.1% | Percent inhibition−Percent Stimulation±SEM ([1]; 3.0 μM, 48 hrs): −78.0 ± 3.6% | Percent inhibition−Percent Stimulation±SEM ([1]; 3.0 μM, 72 hrs): −46.7 ± 10.2% | Percent inhibition−Percent Stimulation±SEM ([1]; 30 μM, 48 hrs): −99.2 ± 19.4% | Percent inhibition−Percent Stimulation±SEM ([1]; 30 μM, 72 hrs): −22.8 ± 14.7% | Percent inhibition−Percent Stimulation±SEM ([2]; 0.3 μM, 48 hrs): −48.2 ± 4.4% | Percent inhibition−Percent Stimulation±SEM ([2]; 0.3 μM, 72 hrs): −17.1 ± 2.0% | Percent inhibition−Percent Stimulation±SEM ([2]; 3.0 μM, 48 hrs): −77.7 ± 5.7% | Percent inhibition−Percent Stimulation±SEM ([2]; 3.0 μM, 72 hrs): −27.2 ± 6.2% | Percent inhibition−Percent Stimulation±SEM ([2]; 30 μM, 48 hrs): −57.9 ± 3.2% | Percent inhibition−Percent Stimulation±SEM ([2]; 30 μM, 72 hrs): −27.2 ± 1.9% | Percent inhibition−Percent Stimulation±SEM ([3]; 0.3 μM, 48 hrs): −30.5 ± 10.2% | Percent inhibition−Percent Stimulation±SEM ([3]; 0.3 μM, 72 hrs): −25.9 ± 8.0% | Percent inhibition−Percent Stimulation±SEM ([3]; 3.0 μM, 48 hrs): −74.2 ± 6.3% | Percent inhibition−Percent Stimulation±SEM ([3]; 3.0 μM, 72 hrs): −46.2 ± 5.2% | Percent inhibition−Percent Stimulation±SEM ([3]; 30 μM, 48 hrs): −57.0 ± 10.0% | Percent inhibition−Percent Stimulation±SEM ([3]; 30 μM, 72 hrs): −38.9 ± 5.2% | Percent inhibition−Percent Stimulation±SEM ([4]; 0.3 μM, 48 hrs): −100.0 ± 1.0% | Percent inhibition−Percent Stimulation±SEM ([4]; 0.3 μM, 72 hrs): −100.0 ± 0.3% | Percent inhibition−Percent Stimulation±SEM ([4]; 3.0 μM, 48 hrs): −98.6 ± 1.1% | Percent inhibition−Percent Stimulation±SEM ([4]; 3.0 μM, 72 hrs): −99.7 ± 0.4% | Percent inhibition−Percent Stimulation±SEM ([4]; 30 μM, 48 hrs): −100.0 ± 1.8% | Percent inhibition−Percent Stimulation±SEM ([4]; 30 μM, 72 hrs): −100.0 ± 0.9% | Percent inhibition−Percent Stimulation±SEM ([5]; 0.3 μM, 48 hrs): −38.4 ± 6.1% | Percent inhibition−Percent Stimulation±SEM ([5]; 0.3 μM, 72 hrs): −19.8 ± 7.7% | Percent inhibition−Percent Stimulation±SEM ([5]; 3.0 μM, 48 hrs): −72.4 ± 8.5% | Percent inhibition−Percent Stimulation±SEM ([5]; 3.0 μM, 72 hrs): −54.7 ± 11.2% | Percent inhibition−Percent Stimulation±SEM ([5]; 30 μM, 48 hrs): −52.9 ± 6.5% | Percent inhibition−Percent Stimulation±SEM ([5]; 30 μM, 72 hrs): −29.4 ± 6.8%
